Assay [1] deals with T1, α7 nicotinic acetylcholine receptor (α7 nAChR) (Sus scrofa, UniProt F1SNR6).
T1 construct: gene CHRNA7; native receptor in pig cortex sections
As to the kind of experiment: displacement of […]Iodo-ASEM at […] by autoradiography. The conditions noted are these: read-out: [^125I]Iodo-ASEM Binding in the Pig Cortex, Layers 1-3 (%, mean ± S.E.M.).

Assay [2] has as its target T1, α7 nicotinic acetylcholine receptor (α7 nAChR). As to the kind of experiment: displacement of […]Iodo-ASEM at […] by autoradiography; also blocks […]ASEM PET in vivo. The settings on record: read-out: [^125I]Iodo-ASEM Binding in the Pig Cortex, Layers 1-3 (%, mean ± S.E.M.).

We go through four molecules from article PMC7144377, “In Vitro and In Vivo Characterization of Dibenzothiophene Derivatives [^125I]Iodo-ASEM and [^18F]ASEM as Radiotracers of Homo- and Heteromeric α7 Nicotinic Acetylcholine Receptors” (Molecules, 2020).

T1 sequence (F1SNR6 20-499): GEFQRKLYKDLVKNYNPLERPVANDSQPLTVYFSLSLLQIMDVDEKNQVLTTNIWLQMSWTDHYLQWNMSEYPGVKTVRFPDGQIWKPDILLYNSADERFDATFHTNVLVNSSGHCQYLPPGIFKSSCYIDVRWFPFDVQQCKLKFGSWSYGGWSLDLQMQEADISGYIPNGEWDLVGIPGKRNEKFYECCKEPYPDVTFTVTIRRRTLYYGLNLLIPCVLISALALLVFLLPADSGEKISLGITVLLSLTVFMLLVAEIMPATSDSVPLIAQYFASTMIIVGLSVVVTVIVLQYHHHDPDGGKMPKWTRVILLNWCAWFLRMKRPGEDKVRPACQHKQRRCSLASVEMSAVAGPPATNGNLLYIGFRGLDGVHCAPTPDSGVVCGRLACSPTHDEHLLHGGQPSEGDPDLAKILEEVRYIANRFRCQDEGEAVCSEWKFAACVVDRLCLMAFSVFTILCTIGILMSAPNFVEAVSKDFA

`CCN1C[C@]2(COC(=O)c3ccccc3N3C(=O)C[C@H](C)C3=O)CC[C@H](OC)[C@@]34[C@@H]5C[C@H]6[C@H](OC)[C@@H]5[C@](O)(C[C@@H]6OC)[C@@](O)([C@@H](OC)[C@H]23)[C@@H]14` [methyllycaconitine]: the activity at 10 µM in assay [1] is 20.5 ± 2.18%.

Consider `O=C(N[C@@H]1C2CCN(CC2)[C@H]1Cc1cccnc1)c1cc2ccccc2o1` [TC-5619], for which, in assay [1], the activity at 10 µM worked out at 7.88 ± 1.65%.

Take `CN1C[C@@H]2CN(c3ccc(-c4ccccc4)nn3)C[C@@H]2C1` [A-582941]: in assay [1], the activity at 10 µM came out at 3.22 ± 0.28%.

On to `O=C(Oc1ccc(Br)cc1)N1CCN2CCC1CC2` [SSR-180,711], for which, in assay [2], the activity at 10 µM was determined as 2.92 ± 0.35%.
